The source of these data is US20240374618A1, “COMPOSITION OF TANNIC ACID AND VITAMIN D AND METHODS OF USE” (Nulastin, Inc., priority 2021, published 2024).

One assay has as its system human dermal fibroblasts. As to the kind of experiment: Immunodetection of elastin in cultured human dermal fibroblasts. The settings on record: for elastin concentration: FIGS. 1A-1C. The format is cell-based. As to the method:
Biological effects of tannic acid in the presence of hyaluronic acid or ferulic acid were tested on dermal fibroblasts derived from punch biopsies of healthy skin. All fibroblasts were isolated by allowing migration out of skin explants and passaged by trypsinization. Fibroblasts were maintained in alpha-minimum essential medium supplemented with 20 mM HEPES, 1% antibiotics and antimycotics, 1% L-Glutamate and 2% fetal bovine serum (FBS). Cells were plated (50×10^5 cells/dish) to reach confluency and were cultured for 7 days in the presence or absence of hyaluronic acid (0.1%), ferulic acid (5 μg/mL), tannic acid (2 μg/mL), or a combination thereof.
Cell cultures prepared according to Example 1 maintained in the presence or absence of tannic acid, hyaluronic acid, or ferulic acid were fixed in cold 100% methanol at […] for detection of elastin or in 4% paraformaldehyde at room temperature for detection of collagen I. The multiple parallel cultures were incubated with […] of polyclonal antibody to tropoelastin (Elastin Products, Owensville, MI), or polyclonal antibody to collagen type I (Chemicon, Temecula, CA). Cultures were incubated with the respective fluorescein-conjugated goat anti-rabbit, goat anti-mouse, or rabbit anti-goat secondary antibodies. Nuclei were counter stained with propidium iodide (Sigma, St. Louis, MO). All cultures were examined with a Nikon Eclipse E1000 microscope attached to a cooled CCD camera (QImaging, Retiga EX) and analyzed with the computer-generated morphometric analysis system, in which the Image-Pro Plus software (Media Cybernetics, Silver Springs, MD) estimates the proportion of areas marked with green fluorescence, in relation to the entire (1 square mm) analyzed field.
Cultured human dermal fibroblasts were grown in the presence or absence of tannic acid at low concentration (2 μg/mL) and high concentration (20 μg/mL). Immunodetection of elastin was performed as described in Example 2.
(§1) Cultured human dermal fibroblasts were grown in the presence of or absence of vitamin D (10^−7 M), tannic acid ([…]), or a combination of vitamin D and tannic acid (2 μg/mL) (FIGS. 2A-2B and FIGS. 3A-3C). Immunodetection of elastin was performed as described above.
Cultured human dermal fibroblasts were grown in the presence of or absence hyaluronic acid (0.1%), tannic acid (2 μg/mL), or a combination of hyaluronic acid (0.1%) and tannic acid (2 μg/mL). Immunodetection of elastin was performed as described above.
Cultured human dermal fibroblasts were grown in the presence or absence of ferulic acid (5 μg/mL), tannic acid (2 μg/mL), or a combination of ferulic acid (5 μg/mL) and tannic acid (2 μg/mL). Immunodetection of elastin and collagen I was performed as described above. Results are shown in FIGS. 5A-5C, and FIGS. 6A-6B for elastin and FIGS. 7A-7C and FIG. 8 for collagen.
Cultured human dermal fibroblasts were grown in the presence or absence of ferulic acid (20 μM), tannic acid (2 μg/mL), or copper sulfate (2 μM). Fibroblasts were also grown in presence of a combination of ferulic acid (20 μM) and copper sulfate (2 μM), a combination of ferulic acid (20 μM) and tannic acid (2 μg/mL), and a combination of tannic acid (2 μg/mL) and copper sulfate (2 μM). Immunodetection of elastin was performed as described above.

The test system of a further assay is fibroblast cultures. Briefly: Amount of tropoelastin in fibroblast cultures measured using PCR. The format is cell-based, human. The note with it: tannic acid added to cultures that contained vitamin D3; PCR after 18 hours; FIG. 2A. As to the method:
FIG. 2A depicts the amount of tropoelastin in fibroblast cultures measured using PCR after 18 hours.
as §1

On to `O=C(OC[C@H]1O[C@@H](OC(=O)c2cc(O)c(O)c(OC(=O)c3cc(O)c(O)c(O)c3)c2)[C@H](OC(=O)c2cc(O)c(O)c(OC(=O)c3cc(O)c(O)c(O)c3)c2)[C@@H](OC(=O)c2cc(O)c(O)c(OC(=O)c3cc(O)c(O)c(O)c3)c2)[C@@H]1OC(=O)c1cc(O)c(O)c(OC(=O)c2cc(O)c(O)c(O)c2)c1)c1cc(O)c(O)c(OC(=O)c2cc(O)c(O)c(O)c2)c1` [tannic acid], for which the “net deposition of elastin” value with human dermal fibroblasts (tannic acid (2 μg/mL) added to hyaluronic acid (0.1%)) and in the assay with human dermal fibroblasts (tannic acid (2 μg/mL) added to vitamin D (10^−7 M)) was “improvement in net deposition of elastin” throughout. For the same compound, the production of elastin entry in the assay on human dermal fibroblasts (tannic acid (2 μg/mL) in the presence of ferulic acid (5 μg/mL)) is given as “improved production of elastin even in the presence of ferulic acid”. Besides, the values for the elastin concentration entry with human dermal fibroblasts (tannic acid at high concentration (20 μg/mL)) and in the assay with human dermal fibroblasts (tannic acid at low concentration (2 μg/mL)) were “caused elastosis” and “improved elastin concentration”, respectively. Moreover, in the assay on fibroblast cultures, the amount of tropoelastin result is reported as “increased the amount of tropoelastin”.

Consider hyaluronic acid, for which the elastin production entry in the assay on human dermal fibroblasts (hyaluronic acid (0.1%) alone) is recorded as “inhibition of elastin production”.

In the case of vitamin D, in the assay with human dermal fibroblasts (vitamin D (10^−7 M) alone), the elastin production entry is listed as “inhibition of elastin production”.
